# Measured values from patent US6663881B2 (priority 1993, dated 2003).
# Tests used:
# [1] = 7 day intravenous toxicity study in rats (Table 11); assay type: in vivo; details: 10 μg/ml IV four times a day for 7 days (800 μg/kg daily)
# Method: To determine the toxicity of cytochalasin B, rats (4 male and 4 female) were injected with 10 μg/ml cytochalasin B four times a day for 7 days (Table 11). Data regarding body weight changes, food consumption, food efficiency, hematology parameters, coagulation parameters, serum chemistry parameters, and gross necropsy findings were collected. […] There were no gross or microscopic changes detected in the heart to account for the elevation. Thus, daily administration of cytochalasin B to rats at a dose of 800 μg/kg (for a total injected dose of 5600 μg/kg) may have an effect on heart weight of female (but not male) rats. However, clotted blood was not routinely removed from the heart lumens prior to weighing the heart.
# [2] = test system: swine coronary arteries traumatized by embolectomy or over-sized PTCA balloon; assay: Swine coronary artery study, MIC catheter infusion, morphometry at 4 weeks (Table 15); assay type: in vivo; details: 8.0 μg/ml
# Method: Swine coronary arteries were also traumatized by embolectomy or over-sized PTCA balloon, and then 8-16 ml of cytochalasin B at 8.0 μg/ml was infused into the arterial wall with a MIC catheter to achieve a therapeutic dose. Controls included a diluent control and a traumatized untreated control, and all animals were sacrificed 4 weeks after intervention and coronary arteries were fixed by perfusion. Morphometry was performed on selected sections from proximal, treated and distal segments of coronary arteries (Table 15).
# [3] = Tissue distribution of cytochalasin B after intravenous administration (TLC); assay type: in vivo, mice
# Method: Cytochalasin B was also administered intravenously to mice at 3.5 mg/kg (in methanol or Tween 20/carboxymethyl cellulose). Mice were sacrificed at 2 minutes, 15 minutes, 30 minutes, 3 hours and 12 hours after cytochalasin B administration and tissue extracts analyzed for cytochalasin by TLC. The maximal recovery of cytochalasin B from tissue extracts was 32%.
# [4] = test system: balloon traumatized pig femoral artery; assay: Sustained release adventitial wraps on balloon traumatized pig femoral artery (Table 16, Group 12); assay type: in vivo; details: Group 12: 30% wt/wt loaded silicone wraps
# From the text: To determine the efficacy of the local, sustained release dosage forms of cytochalasin B or taxol to inhibit restenosis, cytochalasin B or taxol in a supporting structure, e.g., a “wrap,” was applied to the adventitial tissue surrounding a balloon traumatized rabbit carotid artery (Groups 1-11) or a balloon traumatized pig femoral artery (Group 12) (Table 16).
# While there was intimal proliferation in the arteries 3 weeks later, the proliferation was still less than the proliferation observed for the controls.
smiles,measurement,setting,value
C=C1[C@@H](C)[C@H]2[C@H](Cc3ccccc3)NC(=O)[C@]23OC(=O)/C=C/[C@H](O)CCC[C@@H](C)C/C=C/[C@H]3[C@@H]1O [cytochalasin B],adverse effect,[1],elevation of the mean relative heart weight in treated female animals
same,arterial remodeling (area bounded by the external elastic lamina),[2],trend toward beneficial arterial remodeling
same,luminal area,[2],did not result in a statistically significant increase in luminal area
same,acute toxicity,[3]; 3.5 mg/kg intravenously,no acute toxicity
same,maximal recovery from tissue extracts,[3]; 3.5 mg/kg intravenously,32%
same,tissue localization,[3]; 3.5 mg/kg intravenously,localized to the lung and the injection site
same,levels in tissues,[3]; 12 hours after administration,very low levels
same,intimal proliferation,[4],significantly inhibited intimal proliferation for the first two weeks
